Reference: PMC7442133, “Reduced treatment frequencies with bumped kinase inhibitor 1369 are effective against porcine cystoisosporosis” (International Journal for Parasitology: Drugs and Drug …, 2020)
“And” between values parts separate entries of the source, which are not always exact repeats. Equal entries are not always repeated. “Also recorded” adds a separate entry of the source.

Columns and labels:
[1] = Post-treatment observations for adverse events; type: in vivo, piglets
Experimental: For both experiments, post-treatment observations for any adverse events such as swelling/bleeding of the iron injection site, inability to stand, walk, suckle or other abnormal behavior, including dyspnoea, vomiting, limping, lateral recumbency, signs of pain, distress or neurological alterations ([Oldham, 1985]), were conducted under blinded conditions by a veterinarian at 2 h, 24 h and 48 h after treatment. In addition, all piglets were observed daily during the course of the studies to ensure good health, and any condition that required veterinary intervention was recorded and addressed.

C. suis (strain Wien-I) [2] = assay: Fecal score and diarrhea of experimentally infected suckling piglets; type: in vivo, Cystoisospora suis
C. suis (strain Wien-I) [3] = assay: Oocyst excretion of experimentally infected suckling piglets (autofluorescence, modified McMaster); type: in vivo, Cystoisospora suis; conditions: for Start of oocyst excretion (study day): controls started SD 8
[4] = Exp I group A: 1 × 20 mg/kg BW oral, SD 3 (0 dpi)
[5] = Exp I group B: 1 × 20 mg/kg BW oral, SD 5 (2 dpi)
[6] = Exp I group C: 2 × 20 mg/kg BW oral, SD 5 & SD 7 (2 & 4 dpi)
[7] = Exp II group W: 1 × 20 mg/kg BW oral, SD 5 (2 dpi)
[8] = Exp II group X: 1 × 10 mg/kg BW oral, SD 5 (2 dpi)
[9] = Exp II group Y: 1 × 5 mg/kg BW oral, SD 5 (2 dpi)
[10] = single treatment 20 mg/kg BW 2 dpi
[11] = single treatment 20 mg/kg BW on the day of infection

CCOc1ccc2cc(-c3nn(CC4CCN(C)CC4)c4ncnc(N)c34)ccc2n1 [BKI 1369]
Treatment-related adverse effects that required veterinary intervention ([1]; 5, 10 or 20 mg/kg BW, one or two oral doses, whole study period): No piglets showed treatment-related adverse effects; also recorded: without any adverse effects
Visible signs of toxicity, clinically relevant systemic or regional/local responses related to treatment ([1]; treated groups, both experiments): Neither visible signs of toxicity nor clinically relevant systemic or regional/local responses related to treatment were observed
% piglets with diarrhea at least once (C. suis (strain Wien-I) [2]; [4]): 60%
Number of diarrhea days ± SD (C. suis (strain Wien-I) [2]; [4]): 1.4 ± 1.71 days
% piglets with diarrhea at least once (C. suis (strain Wien-I) [2]; [5]): 18.18%
Number of diarrhea days ± SD (C. suis (strain Wien-I) [2]; [5]): 0.27 ± 0.65 days
% piglets with diarrhea at least once (C. suis (strain Wien-I) [2]; [6]): 27.27%
Number of diarrhea days ± SD (C. suis (strain Wien-I) [2]; [6]): 0.45 ± 0.93 days
Mean FS and diarrhea days compared to control piglets (in words) (C. suis (strain Wien-I) [2]; Exp I: single dose 20 mg/kg BW at 2 dpi): significantly lower mean FS and fewer diarrhea days
Effect on diarrhea (in words) (C. suis (strain Wien-I) [2]; Exp I: single dose of 20 mg/kg BW on the day of infection): failed to reduce occurrence of diarrhea
Mean FS and diarrhea days compared to control piglets (in words) (C. suis (strain Wien-I) [2]; Exp I: two doses 20 mg/kg BW at 2 and 4 dpi): significantly lower mean FS and fewer diarrhea days
% piglets with diarrhea at least once (C. suis (strain Wien-I) [2]; [7]): 10%
Number of diarrhea days ± SD (C. suis (strain Wien-I) [2]; [7]): 0.2 ± 0.63 days
% piglets with diarrhea at least once (C. suis (strain Wien-I) [2]; [8]): 40%
Number of diarrhea days ± SD (C. suis (strain Wien-I) [2]; [8]): 0.5 ± 0.70 days
% piglets with diarrhea at least once (C. suis (strain Wien-I) [2]; [9]): 77.80%
Number of diarrhea days ± SD (C. suis (strain Wien-I) [2]; [9]): 2.6 ± 1.88 days
Effect on diarrhea (in words) (C. suis (strain Wien-I) [2]; Exp II: 5 mg/kg BW at 2 dpi): completely failed to control diarrhea
Effect on diarrhea (in words) (C. suis (strain Wien-I) [2]; Exp II: 10 mg/kg BW at 2 dpi): effectively suppressed diarrhea
Effect on diarrhea (in words) (C. suis (strain Wien-I) [2]; Exp II: 20 mg/kg BW at 2 dpi): effectively suppressed diarrhea
Number of diarrhea days compared to control piglets (in words) (C. suis (strain Wien-I) [2]; irrespective of time points and frequencies of treatment): reduced number of diarrhea days
Start of oocyst excretion (study day) (C. suis (strain Wien-I) [3]; Exp I group A: 1 × 20 mg/kg BW day of infection): 11 SD
Mean AUC for OpG (C. suis (strain Wien-I) [3]; [4]): 4861.8
Number of excretion days ± SD (mean duration of oocyst excretion) (C. suis (strain Wien-I) [3]; Exp I group A: 1 × 20 mg/kg BW oral, SD 3 (0 dpi), 20 mg/kg): 1 ± 1.6 days and 1 ± 1.56 days
Piglets that excreted oocysts (C. suis (strain Wien-I) [3]; Exp I group A: 1 × 20 mg/kg BW, day of infection): 50%
Number of piglets that excreted oocysts (C. suis (strain Wien-I) [3]; Exp I group B: 1 × 20 mg/kg BW 2 dpi, 11 piglets): two
Start of oocyst excretion (study day) (C. suis (strain Wien-I) [3]; Exp I group B: 1 × 20 mg/kg BW 2 dpi): 16 SD
Mean AUC for OpG (C. suis (strain Wien-I) [3]; [5]): 333
Number of excretion days ± SD (C. suis (strain Wien-I) [3]; [5]): 0.45 ± 1.03 days
Oocyst excretion (in words) (C. suis (strain Wien-I) [3]; Exp I group C: two doses of 20 mg/kg BW at 2 and 4 dpi, 20 mg/kg): completely suppressed oocyst excretion
Number of piglets that excreted oocysts (C. suis (strain Wien-I) [3]; Exp II group W: 1 × 20 mg/kg BW 2 dpi, 10 piglets, excreted only once on SD 16): one
Mean AUC for OpG (C. suis (strain Wien-I) [3]; [7]): 99.9
Number of excretion days ± SD (C. suis (strain Wien-I) [3]; [7]): 0.1 ± 0.32 days
Oocyst excretion (in words) (C. suis (strain Wien-I) [3]; Exp II group W: single dose of 20 mg/kg BW 2 dpi): effectively suppressed
Mean AUC for OpG (C. suis (strain Wien-I) [3]; [8]): 20129.85
Number of excretion days ± SD (mean duration of oocyst excretion) (C. suis (strain Wien-I) [3]; Exp II group X: 1 × 10 mg/kg BW oral, SD 5 (2 dpi), 10 mg/kg): 1.3 ± 2.7 days and 1.3 ± 2.75 days
Piglets that excreted oocysts (C. suis (strain Wien-I) [3]; Exp II group X: 1 × 10 mg/kg BW, 2 dpi): 50%
Number of piglets that excreted oocysts (C. suis (strain Wien-I) [3]; Exp II group X: single dose of 10 mg/kg BW 2 dpi): 5 out of 10
Mean AUC for OpG (C. suis (strain Wien-I) [3]; [9]): 56610
Number of excretion days ± SD (mean duration of oocyst excretion) (C. suis (strain Wien-I) [3]; Exp II group Y: 1 × 5 mg/kg BW oral, SD 5 (2 dpi), 5 mg/kg): 3.6 ± 1.9 days and 3.6 ± 1.94 days
Piglets that excreted oocysts (C. suis (strain Wien-I) [3]; Exp II group Y: 1 × 5 mg/kg BW, 2 dpi): 90%
Control of parasitic shedding and diarrhea (in words) (C. suis (strain Wien-I) [3]; single application of 5 mg/kg BW 2 dpi): completely failed to control parasitic shedding and diarrhea
Piglets in which oocyst excretion was suppressed (C. suis (strain Wien-I) [3]; [10]): 82%
Reduction of quantitative oocyst excretion in those that shed oocysts (C. suis (strain Wien-I) [3]; [10]): 98.4%
Piglets in which oocyst excretion was suppressed (C. suis (strain Wien-I) [3]; [11]): 50%
Reduction of quantitative oocyst excretion in those that shed oocysts (C. suis (strain Wien-I) [3]; [11]): 95.2%
Minimal effective dose against cystoisosporosis (C. suis (strain Wien-I) [3]; single treatment 2 dpi, piglets): 10 mg/kg BW
